According to patent US5593970A, “Heterocyclic anthracycline analogs” (priority 1994, dated 1997):
Several values for one entry are separate records, joined by “and”; a condition that tells them apart may be missing. Identical values can stand only once. Like-named read-outs stand apart in the source and are kept apart here.

Experiments:
CCRF-CEM = test: NCI sulforhodamine B assay; type: cell-based; details: Homo sapiens, 48 h, read-out: Log10 LC50 (converted)
Experimental: The method consists of incubating varying concentrations of the drug with an inoculum of cells for two days. […] The 57 cell lines included two mouse leukemia lines (P388 parental and adriamycin resistant) and 56 human cell lines.

OVCAR-3 = test: NCI sulforhodamine B assay; type: cell-based; details: Homo sapiens, read-out: Log10 GI50 (converted)
Experimental: (§1) These assays were carried out at the Developmental Therapeutics Program, Division of Cancer Treatment, National Cancer Institute (Bethesda, Md., U.S.A.). The method consists of incubating varying concentrations of the drug with an inoculum of cells for two days. […] The 57 cell lines included two mouse leukemia lines (P388 parental and adriamycin resistant) and […] human cell lines.
(§2) It should be noted that the first two parameters (GI50 and TGI) relate to antiproliferation effects while the third one (LC50) indicates true cytotoxicity. A value of -4 or greater is considered to denote resistance (inactivity).

P388 = test: NCI sulforhodamine B assay; type: cell-based; details: Mus musculus, P388, 48 h
Experimental: as §1, §2

XF-498 L = test: NCI sulforhodamine B assay; type: cell-based; details: Homo sapiens
Experimental: as §1, §2

HCT-116 = test: NCI sulforhodamine B assay; type: cell-based; details: Homo sapiens
Experimental: as §1, §2

K-562 = test: NCI sulforhodamine B assay; type: cell-based; details: Homo sapiens, K562, 48 h, read-out: Log10 TGI (converted)
Experimental: as §1, §2

SNB-78 = test: NCI sulforhodamine B assay; type: cell-based; details: Homo sapiens, SNB-78, 48 h, read-out: Log10 LC50 (converted)
Experimental: as §1, §2

OVCAR-8 = test: NCI sulforhodamine B assay; type: cell-based; details: Homo sapiens, read-out: Log10 GI50 (converted)
Experimental: as §1, §2

MOLT-4 = test: NCI sulforhodamine B assay; type: cell-based; details: Homo sapiens, MOLT-4, 48 h; read-out: Log10 TGI (converted)
Experimental: as §1, §2

NCl-H23 = test: NCI sulforhodamine B assay; type: cell-based, human
Experimental: as §1, §2

IGROV-1 = test: NCI sulforhodamine B assay; type: cell-based, human
Experimental: as §1, §2

NCl-H226 = test: NCI sulforhodamine B assay; type: cell-based, human
Experimental: as §1, §2

RPMI-8226 = test: NCI sulforhodamine B assay; type: cell-based, human; details: 2880 min
Experimental: as §1, §2

P388/ADR = test: NCI sulforhodamine B assay; type: cell-based, mouse
Experimental: as §1, §2

tumor cell lines = details: tumor cell line panel, 48 h
solid tumors = details: solid tumor cell lines, 48 h
Renal = details: renal cancer cell lines, 48 h

## COC(=O)C1CC2=C(C(=O)c3c(cc4ccccc4c3O)C2=O)C(O[C@H]2C[C@H](NC(=O)C(F)(F)F)[C@H](O)[C@H](C)O2)O1 (mixture of isomers) [BCH-242, (1'S,1R,3S) and (1'S, 1S,3R)-Methyl[11-hydroxy-1-2',3',6'-trideoxy-3-trifluroacetamido-L-lyxohexopyranose)-5,12-dioxo-3,4,5,12-tetrahydroanthraceno[2,3-c]pyran-3-yl]formate]
CCRF-CEM
  CC50: > 100000 nM
OVCAR-3; OVCAR-3, OVCAR-3
  GI50: 1510 nM
OVCAR-3; OVCAR-3
  GI50: 251 nM
P388; read-out: Log10 LC50 (converted)
  CC50: > 100000 nM
P388; read-out: Log10 TGI
  IC100: > 100 µM
XF-498 L; XF498, 48 h, read-out: Log10 LC50 (converted)
  CC50: 6030 nM
XF-498 L; XF498, 48 h, XF-498 L, read-out: Log10 TGI (converted)
  IC100: 3.16 µM
XF-498 L; XF498, XF-498 L, read-out: Log10 GI50 (converted)
  GI50: 1620 nM
HCT-116; HCT-116, 48 h, read-out: Log10 LC50 (converted)
  CC50: 933 nM
HCT-116; HCT-116, 48 h, read-out: Log10 TGI (converted)
  IC100: 0.355 µM
HCT-116; HCT-116, read-out: Log10 GI50 (converted)
  GI50: 132 nM
K-562
  IC100: 4.47 µM
SNB-78
  CC50: > 100000 nM
OVCAR-8; OVCAR-8, OVCAR-8
  GI50: 224 nM
OVCAR-8; OVCAR-8
  GI50: 3240 nM
MOLT-4
  IC100: 3.24 µM
NCl-H23; Homo sapiens, 48 h, NCl-H23, read-out: Log10 TGI (converted)
  IC100: 3.24 µM
NCl-H23; Homo sapiens, NCI-H23, 48 h, read-out: Log10 LC50, NCl-H23 (converted)
  CC50: 5890 nM
NCl-H23; NCl-H23
  Log10 GI50: -5.99 log molar
  Log10 TGI: -5.65 log molar
NCl-H23; NCl-H23, 2880 min
  Log10 LC50: -5.31 log molar
IGROV-1
  Log10 GI50: -5.75 log molar
IGROV-1; 2880 min
  Log10 LC50: -5.10 log molar
NCl-H226
  Log10 GI50: -5.71 log molar
  Log10 TGI: -5.44 log molar
NCl-H226; Homo sapiens, 48 h, read-out: Log10 TGI (converted)
  IC100: 6.61 µM
NCl-H226; Homo sapiens, read-out: Log10 GI50 (converted)
  GI50: 2750 nM
RPMI-8226
  Log10 LC50: -4.47 log molar
P388/ADR; 2880 min
  Log10 LC50: > -4.00 log molar
P388/ADR; Mus musculus, 48 h, read-out: Log10 LC50, P388/ADR (converted)
  CC50: 69200 nM
P388/ADR; Mus musculus, read-out: Log10 GI50 (converted)
  GI50: 2340 nM and 324 nM

## Methyl(11-hydroxy-5,12-dioxo-3,4,5,12-tetrahydroanthraceno[2,3-c]pyran-3-yl)ketone and Methyl(5-hydroxy-5,12-dioxo-3,4,5,12-tetrahydroanthraceno[2,3-c]pyran-3-yl)ketone [BCH-687]
Tumor cell lines
  Log10 LC50, Mean / MG-MID: -4.10 log molar
Solid tumors
  Average LOG10 LC50, Mean Potency in solid tumors: -4.21(± 0.05) log molar
Renal
  Average LOG10 LC50: > -4.21 log molar
